Measurements taken from article doi:10.1101/2021.07.15.452591v1 (biorxiv, 2021).

Target: T1, AmnC (2-aminomuconic 6-semialdehyde dehydrogenase) (Pseudomonas sp., UniProt Q9KWS5, DEL124-138/DEL477-491)
T1 sequence (Q9KWS5 1-476 DEL124-138): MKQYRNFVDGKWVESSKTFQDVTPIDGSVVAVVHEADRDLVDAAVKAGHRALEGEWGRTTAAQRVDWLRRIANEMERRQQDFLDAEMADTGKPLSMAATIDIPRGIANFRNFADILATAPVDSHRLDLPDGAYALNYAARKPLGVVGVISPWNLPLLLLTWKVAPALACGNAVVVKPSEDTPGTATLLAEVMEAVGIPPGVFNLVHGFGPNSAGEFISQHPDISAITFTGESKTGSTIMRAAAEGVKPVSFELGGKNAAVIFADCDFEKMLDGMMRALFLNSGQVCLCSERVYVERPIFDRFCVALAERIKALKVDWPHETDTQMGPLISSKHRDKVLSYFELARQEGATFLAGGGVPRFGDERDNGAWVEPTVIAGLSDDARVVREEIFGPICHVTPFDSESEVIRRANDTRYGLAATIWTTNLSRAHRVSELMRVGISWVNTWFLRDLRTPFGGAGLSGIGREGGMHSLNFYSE
Test: microscale thermophoresis
Assay type: binding

`NC(=O)c1ccc[n+]([C@@H]2O[C@H](COP(=O)(O)OP(=O)(O)OC[C@H]3O[C@@H](n4cnc5c(N)ncnc54)[C@H](O)[C@@H]3O)[C@@H](O)[C@H]2O)c1` [NAD^+] gave a Kd of 3 ± 0.3 mM.
